Values of other authors as cited in patent EP0275444A1, “Pharmaceutical form for urapidil” (BYK GULDEN LOMBERG CHEMISCHE FABRIK GMBH, priority 1986, dated 1988).
Where two headings read alike, the source gives them in different places.

How the values were obtained:
[1] = in vivo

| Löslichkeit (above pH 4, in water) | Löslichkeit (at the higher pH values of the intestine) | Eliminationshalbwertzeit [1] | Compound |
| --- | --- | --- | --- |
| praktisch wasserunlöslich | – | – | OCCN(CCO)c1nc(N2CCCCC2)c2nc(N(CCO)CCO)nc(N3CCCCC3)c2n1 [Dipyridamol] |
| – | ausreichende Löslichkeit | 2,7 Stunden | COc1ccccc1N1CCN(CCCNc2cc(=O)n(C)c(=O)n2C)CC1 [Urapidil, 6-({3-[4-(o-Methoxyphenyl)-1-piperazinyl]propyl}amino)-1,3-dimethyluracil] |
